Measured values: PMC9693223 (Molecules, 2022)

Key:
[1] = tested on: L. mexicana Cas9 promastigotes; assay: Alamar blue drug sensitivity assay, L. mexicana Cas9 promastigotes; assay type: cell-based, Leishmania mexicana; settings: Leishmania mexicana, 120 h, 72 h + 48 h resazurin, at least 3 independent determinations, read-out: EC50 (µM) AVG ± SEM, Cas9
Procedure, shortened: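 Promastigotes cultured in HOMEM with 10% FBS at 25 °C were added as a 2 × 10^6 cells mL^−1 culture to 23-point compound dilutions. After 72 h at 25 °C, resazurin was added for a further 48 h, and fluorescence was read at ex 544/em 620 nm. EC50 came from a variable-slope sigmoid fit (3–4 independent experiments).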

[2] = tested on: L. mexicana Cas9^ΔNT1+TcrNT2 promastigotes; assay: Alamar blue drug sensitivity assay, L. mexicana Cas9^ΔNT1+TcrNT2 promastigotes; assay type: cell-based, Leishmania mexicana; settings: Cas9^ΔNT1+TcrNT2 in comparison to L. mexicana Cas9^ΔNT1
Source text: We used L. mexicana promastigotes of the Cas9 strain developed by Beneke at al. to generate the ΔNT1 strain, and from there the Cas9^ΔNT1+TcrNT2 (see below); The original Cas9 strain was generously donated by Prof. Eva Gluenz (University of Bern, Switzerland). All strains in standard HOMEM (GIBCO, Life Technologies, Paisley, UK) supplemented with 10% heat-inactivated fetal bovine serum (FBS; PAA Laboratories, Linz, Austria) and 1% of a penicillin–streptomycin solution (10,000 U mL^−1 each; Life Technologies) at 25 °C, as described.
The Alamar blue assay (resazurin sodium salt) was used to determine the drug sensitivity of the L. mexicana promastigotes in vitro. The assay is based on the reduction of resazurin sodium salt (blue and non-fluorescent) to resorufin (pink color and fluorescent) by live cells. HOMEM medium with 10% FBS (100 μL) was added to all wells of a white 96-well plate apart from the first well. 200 μL of a known concentration of test compounds was diluted in HOMEM medium and placed in the first well. Compounds were tested in one plate and every compound was diluted over two rows (23 concentrations), leaving the last well of every dilution as a negative control having 100 μL HOMEM medium. Next, 100 μL of L. mexicana culture at a density of 2 × 10^6 cells mL^−1 was added into every well in the plate and incubated for 72 h at a temperature of 25 °C after which resazurin sodium salt (Sigma) (20 μL of a solution of 12.5 mg in 100 mL PBS) was added and the plate was incubated under the same conditions for a further 48 h. Fluorescence was measured in a FLUOstar OPTIMA plate reader (BMG Labtech, Germany), at a wavelength of 544 nm for excitation and 620 nm for emission. The EC50 values and fluorescence data were determined and plotted by the GraphPad Prism 8 Software using an equation for a sigmoid curve with variable slope. Pentamidine was used as positive control and every experiment was performed 3–4 times independently.

[3] = tested on: T. cruzi epimastigotes (CL Brener strain); assay: In vitro inhibition of proliferation of T. cruzi epimastigotes; assay type: cell-based, Trypanosoma cruzi; settings: Trypanosoma cruzi; cell densities at the 5th day of proliferation, four independent experiments
Method: Trypomastigotes were obtained by infecting CHO-K1 cells. CHO-K1 cells were cultivated in RPMI-1640 medium supplemented with 10% heat-inactivated fetal calf serum (FCS), 0.15% (w/v) […], 100 µg mL^−1 penicillin and 130 µg mL^−1 streptomycin and incubated at 37 °C in a humidified atmosphere containing 5% CO2. CHO-K1 cells were initially incubated with metacyclic trypomastigotes obtained by in vitro differentiation of epimastigotes as previously described (multiplicity of infection: 50 parasites per cell) for 4 h. After washing out the non-internalized parasites, the cells were incubated overnight in RPMI medium supplemented with 10% FCS at 37 °C and then maintained at 33 °C in a humidified atmosphere containing 5% CO2 as previously reported. Infected cells were maintained at 33 °C in the presence of 10% FCS. Infected cell-derived trypomastigotes started to burst into the culture medium at the 5th day post-infection. Trypomastigotes collected at day 5 or 6 post infection were used for the viability assays.
The density of exponentially proliferating epimastigotes for each assay was adjusted to 2.0 × 10^6 parasites mL^−1, transferred into 96-well plates (200 μL/well) and incubated with different concentrations of the compounds 5-F-2′-deoxyuridine, 5-F-uracil, 5-F-uridine or benznidazole. A combination of 60 μM rotenone and 0.5 μM antimycin (RA) was used as a positive control for proliferation inhibition (positive control), as previously described. […] The epimastigote proliferation was measured as previously reported, by reading the optical density (OD) at 620 nm every 24 h for 9 days (which collects readings through the exponential and stationary phases). […] The half-maximal inhibitory concentrations (IC50) were determined during the exponential growth phase (fifth day) by adjusting a sigmoidal dose-response function to experimentally obtained data using GraphPad Prism 8. The compounds were assessed in quadruplicate in each experiment, and the results correspond to four independent experiments.

O=c1[nH]c(=O)n([C@H]2C[C@H](O)[C@@H](CO)O2)cc1F [5-F-2′-dUrd, 5-F-2′-deoxyuridine]
EC50 [1]: 2.19 ± 0.11 µM
RF vs. ΔNT1 (resistance factor) [2]: 14.8
IC50 [3]: 16.8 ± 0.01 µM
